Values joined by “and” are separate entries in the source; they are usually repeats but may differ in a detail not shown here. Equal values may be shown once. Where only a bound is given, the exact number is not on record here.

These results are taken from PubChem BioAssay AID1918937 (Molecular Pharmacology Branch, DTP, NCI, 2023).

This assay concerns 521955-158-R2-J5-PDC complex spheroid viability. Description: Anticancer human tumor 521955-158-R2-J5-PDC patient-derived pancreatic carcinoma cell line growth inhibition. As to conditions: for viability, T/C: stronger effect = lower value. The method in brief:
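Multicellular complex spheroids of tumor cells with human endothelial cells (HUVEC) and mesenchymal stem cells; the LSD1 inhibitor iadademstat was combined with standard-of-care or investigational agents. Top concentration at or near clinical Cmax, half-log dilutions; final DMSO ≤0.25%.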

Where [1] appears, read: curve of first compound, second compound 0.1 µM.
[2] abbreviates: curve of first compound, second compound 0.316 µM.
[3] abbreviates: curve of first compound, second compound 1 µM.
Setting [4] is: curve of first compound, second compound 3.16 µM.
The mark [5] stands for this setting: curve of first compound, second compound 10 µM.
Setting [6] is: second compound 0.1 µM, first compound 0.0316 µM.
The mark [7] stands for this setting: second compound 0.1 µM, first compound 0.1 µM.
Setting [8] is: second compound 0.1 µM, first compound 0.316 µM.
Where [9] appears, read: second compound 0.1 µM, first compound 1 µM.
Setting [10] is: second compound 0.316 µM, first compound 0.0316 µM.
[11] abbreviates: second compound 0.316 µM, first compound 0.1 µM.
The mark [12] stands for this setting: second compound 0.316 µM, first compound 0.316 µM.
Setting [13] is: second compound 0.316 µM, first compound 1 µM.
[14] abbreviates: second compound 1 µM, first compound 0.0316 µM.
The mark [15] stands for this setting: second compound 1 µM, first compound 0.1 µM.
Where [16] appears, read: second compound 1 µM, first compound 0.316 µM.
Setting [17] is: second compound 1 µM, first compound 1 µM.
Setting [18] is: second compound 3.16 µM, first compound 0.0316 µM.
Where [19] appears, read: second compound 3.16 µM, first compound 0.1 µM.
Where [20] appears, read: second compound 3.16 µM, first compound 0.316 µM.
Setting [21] is: second compound 3.16 µM, first compound 1 µM.
[22] abbreviates: second compound 10 µM, first compound 0.0316 µM.
Where [23] appears, read: second compound 10 µM, first compound 0.1 µM.
[24] abbreviates: second compound 10 µM, first compound 0.316 µM.
The mark [25] stands for this setting: second compound 10 µM, first compound 1 µM.
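Note: spheroids exposed to agents for seven days.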
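Throughout, for viability, T/C: percent of DMSO vehicle control luminescence viability.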

One may read the IC50 as the concentration that inhibits the measured activity by half. For orientation: viability, T/C means the result in the treated group divided by that in the control group, in per cent. With `O=C(c1cc(Cc2n[nH]c(=O)c3ccccc23)ccc1F)N1CCN(C(=O)C2CC2)CC1` + NC1CCC(NC2CC2c2ccccc2)CC1, the IC50 under setting [1] is more than 10000 nM; the IC50 under setting [2] is more than 10000 nM; the IC50 under setting [3] is more than 10000 nM; the IC50 under setting [4] is more than 10000 nM; the IC50 under setting [5] is more than 10000 nM. In addition, the viability, T/C reads like this: under setting [6], 109%; under setting [7], 107%; under setting [8], 100%; under setting [9], 98.6%; (second compound 0.1 µM, first compound 3.16 µM) 89.3%; (second compound 0.1 µM, first compound 10 µM) 56.6%. The viability, T/C reads like this: under setting [10], 106%; under setting [11], 108%; under setting [12], 103%; under setting [13], 102%; (second compound 0.316 µM, first compound 3.16 µM) 89%; (second compound 0.316 µM, first compound 10 µM) 57.8%. In addition, the viability, T/C by setting is: under setting [14], 97.9%; under setting [15], 99.6%; under setting [16], 99.4%; under setting [17], 94.8%; (second compound 1 µM, first compound 3.16 µM) 97.1%; (second compound 1 µM, first compound 10 µM) 54.9%. Also, the viability, T/C by setting is: under setting [18], 98.4%; under setting [19], 101%; under setting [20], 99.6%; under setting [21], 102%; (second compound 3.16 µM, first compound 3.16 µM) 86.8%; (second compound 3.16 µM, first compound 10 µM) 59.5%. Further, the viability, T/C was 102% under setting [22]; 105% under setting [23]; 99% under setting [24]; 95.3% under setting [25]; 81.9% (second compound 10 µM, first compound 3.16 µM); 55.9% (second compound 10 µM, first compound 10 µM).
As for `COc1cc(C2c3cc4c(cc3C(OC3OC5COC(C)OC5C(O)C3O)C3COC(=O)C23)OCO4)cc(OC)c1O` (centres undefined), the viability, T/C (compound 0.00949 µM) was 98.3% and 103%; the viability, T/C (compound 0.03 µM) was 88.7% and 100%; the viability, T/C (compound 0.0949 µM) was 36.7% and 63.7%; the viability, T/C (compound 0.3 µM) is 16.6% and 28.2%; the viability, T/C (compound 0.949 µM) was 9.58% and 15.6%; the viability, T/C (compound 3 µM) was 8.64% and 9.05%. In addition, the IC50 (curve of compound) is 71.5 nM and 151 nM.
For the compound `COc1cc(Nc2ncc3c(n2)-c2ccc(Cl)cc2C(c2c(F)cccc2OC)=NC3)ccc1C(=O)O` + NC1CC1c1ccc(-c2cccc(O)c2)cc1, the IC50 under setting [1] is more than 1000 nM; the IC50 under setting [2] is more than 1000 nM; the IC50 under setting [3] is more than 1000 nM; the IC50 under setting [4] was more than 1000 nM; the IC50 under setting [5] is more than 1000 nM. Also, the viability, T/C runs as follows: (second compound 0.1 µM, first compound 0.00316 µM) 67.5%; (second compound 0.1 µM, first compound 0.01 µM) 73.7%; under setting [6], 69.4%; under setting [7], 67.2%; under setting [8], 66.2%; under setting [9], 61.2%. Moreover, the viability, T/C was 65.9% (second compound 0.316 µM, first compound 0.00316 µM); 78.9% (second compound 0.316 µM, first compound 0.01 µM); 62.1% under setting [10]; 72.1% under setting [11]; 81.7% under setting [12]; 59.3% under setting [13]. Moreover, the viability, T/C (second compound 1 µM, first compound 0.00316 µM) is 75.1%; the viability, T/C (second compound 1 µM, first compound 0.01 µM) is 71.4%; the viability, T/C under setting [14] was 65.6%; the viability, T/C under setting [15] is 82.5%; the viability, T/C under setting [16] was 70.8%; the viability, T/C under setting [17] is 71.7%. Also, the viability, T/C is 66.4% (second compound 3.16 µM, first compound 0.00316 µM); 72% (second compound 3.16 µM, first compound 0.01 µM); 81.8% under setting [18]; 72.2% under setting [19]; 75.4% under setting [20]; 66% under setting [21]. In addition, the viability, T/C is, setting by setting: (second compound 10 µM, first compound 0.00316 µM) 69.5%; (second compound 10 µM, first compound 0.01 µM) 69.5%; under setting [22], 67.6%; under setting [23], 63.1%; under setting [24], 57.5%; under setting [25], 71.6%.
On to `CCN(c1cc(-c2ccc(CN3CCOCC3)cc2)cc(C(=O)NCc2c(C)cc(C)[nH]c2=O)c1C)C1CCOCC1` + NC1CCC(NC2CC2c2ccccc2)CC1, for which the IC50 reads like this: under setting [1], more than 3000 nM; under setting [2], 2560 nM; under setting [3], 1880 nM; under setting [4], 1730 nM; under setting [5], 1490 nM. The viability, T/C (second compound 0.1 µM, first compound 0.00949 µM) was 105%; the viability, T/C (second compound 0.1 µM, first compound 0.03 µM) is 105%; the viability, T/C (second compound 0.1 µM, first compound 0.0949 µM) was 94.4%; the viability, T/C (second compound 0.1 µM, first compound 0.3 µM) was 83.3%; the viability, T/C (second compound 0.1 µM, first compound 0.949 µM) is 64.6%; the viability, T/C (second compound 0.1 µM, first compound 3 µM) was 51%. Besides, the viability, T/C was 103% (second compound 0.316 µM, first compound 0.00949 µM); 99.1% (second compound 0.316 µM, first compound 0.03 µM); 95.8% (second compound 0.316 µM, first compound 0.0949 µM); 78.2% (second compound 0.316 µM, first compound 0.3 µM); 71% (second compound 0.316 µM, first compound 0.949 µM); 46.3% (second compound 0.316 µM, first compound 3 µM). The viability, T/C (second compound 1 µM, first compound 0.00949 µM) is 103%; the viability, T/C (second compound 1 µM, first compound 0.03 µM) was 99.8%; the viability, T/C (second compound 1 µM, first compound 0.0949 µM) was 93.7%; the viability, T/C (second compound 1 µM, first compound 0.3 µM) is 79%; the viability, T/C (second compound 1 µM, first compound 0.949 µM) is 66%; the viability, T/C (second compound 1 µM, first compound 3 µM) was 39.5%. The viability, T/C is 96.8% (second compound 3.16 µM, first compound 0.00949 µM); 103% (second compound 3.16 µM, first compound 0.03 µM); 96.3% (second compound 3.16 µM, first compound 0.0949 µM); 82.8% (second compound 3.16 µM, first compound 0.3 µM); 66.6% (second compound 3.16 µM, first compound 0.949 µM); 35.7% (second compound 3.16 µM, first compound 3 µM). The viability, T/C is, setting by setting: (second compound 10 µM, first compound 0.00949 µM) 103%; (second compound 10 µM, first compound 0.03 µM) 101%; (second compound 10 µM, first compound 0.0949 µM) 94.6%; (second compound 10 µM, first compound 0.3 µM) 83.8%; (second compound 10 µM, first compound 0.949 µM) 59.6%; (second compound 10 µM, first compound 3 µM) 34.8%.
As for `NC1CC1c1ccc(-c2cccc(O)c2)cc1` (centres undefined), where the note is “compound 0.1 µM”, the viability, T/C was 78.3%. Besides, the IC50 (compound alone, run of 02/21/2022) was more than 10000 nM.
